38 compounds from US10858335B2 (Rigel Pharmaceuticals, Inc., priority 2014, dated 2020) can be followed below.

For this experiment, the system named is GDF8 signaling (p-SMAD-3 (Ser423/425)). Nature of the experiment: AlphaScreen SureFire SMAD3 (p-Ser423/425) assay, GDF8-stimulated cells (GDF pSMAD). The following applies: Mus musculus, MPC-11, MPC11; GDF8-stimulated; p-SMAD3 AlphaScreen; read-out: GDF pSMAD (MPC11) (inhibition of GDF8 signaling). Format: cell-based. For orientation: In Alpha technology, singlet oxygen from a donor bead excites a nearby acceptor bead.

As for `Cc1cc(-c2ncc(NCc3cccc4cccnc34)cc2-c2ccc3ncsc3c2)ccc1F` [compound 336, 5-(Benzo[d]thiazol-6-yl)-6-(4-fluoro-3-methylphenyl)-N-(quinolin-8-ylmethyl)pyridin-3-amine], the IC50 stood at 764 nM.
For the compound `Cc1cc(-c2ncc(NCc3cccc4cnccc34)cc2-c2ccc3ncsc3c2)ccc1F` [compound 337, 5-(Benzo[d]thiazol-6-yl)-6-(4-fluoro-3-methylphenyl)-N-(isoquinolin-5-ylmethyl)pyridin-3-amine], the IC50 was determined as 479 nM.
With `CC(=O)Nc1ccc(CNc2cnc(-c3ccc(F)c(C)c3)c(-c3ccc4ncsc4c3)c2)cc1` [compound 338, N-(4-(((5-(Benzo[d]thiazol-6-yl)-6-(4-fluoro-3-methylphenyl)pyridin-3-yl)amino)methyl)phenyl)acetamide], the IC50 is 164 nM.
Regarding `Cc1cc(-c2ncc(NCc3cnc4ccccc4c3)cc2-c2ccc3ncsc3c2)ccc1F` [compound 339, 5-(Benzo[d]thiazol-6-yl)-6-(4-fluoro-3-methylphenyl)-N-(quinolin-3-ylmethyl)pyridin-3-amine], the IC50 was found to be 590 nM.
The result for `Cc1cc(-c2ncccc2-c2ccc3ncn(C)c(=O)c3c2)ccc1F` [compound 340, 6-(2-(4-Fluoro-3-methylphenyl)pyridin-3-yl)-3-methylquinazolin-4(3H)-one] reads 464 nM; that for `Cc1cccc(-c2ncccc2-c2ccc3ncn(C)c(=O)c3c2)c1` [compound 341, 3-Methyl-6-(2-(m-tolyl)pyridin-3-yl)quinazolin-4(3H)-one], 260 nM.
In the case of `Cn1cnc2ccc(-c3cccnc3-c3cccc(C4CC4)c3)cc2c1=O` [compound 342, 6-(2-(3-Cyclopropylphenyl)pyridin-3-yl)-3-methylquinazolin-4(3H)-one], the IC50 was found to be 106 nM.
Under `Cc1cc(-c2ncc(-c3cccc(O)c3)cc2-c2ccc3ncsc3c2)ccc1F` [compound 343, 3-(5-(Benzo[d]thiazol-6-yl)-6-(4-fluoro-3-methylphenyl)pyridin-3-yl)phenol] stands 2640 nM; under `Cc1cc(-c2ncc(-c3cn[nH]c3)cc2-c2ccc3ncsc3c2)ccc1F` [compound 345, 6-(2-(4-Fluoro-3-methylphenyl)-5-(1H-pyrazol-4-yl)pyridin-3-yl)benzo[d]thiazole], 4830 nM.
Consider `Cc1cc(-c2ncccc2-c2ccc3[nH]cnc(=O)c3c2)ccc1F` [compound 346, 6-(2-(4-Fluoro-3-methylphenyl)pyridin-3-yl)quinazolin-4(1H)-one], for which the IC50 was determined as 193 nM.
For the compound `Cc1cc(-c2ncc(-c3cccc(S(N)(=O)=O)c3)cc2-c2ccc3ncsc3c2)ccc1F` [compound 347, 3-(5-(Benzo[d]thiazol-6-yl)-6-(4-fluoro-3-methylphenyl)pyridin-3-yl)benzenesulfonamide], the IC50 was found to be 1490 nM.
Turning to `Cc1cc(-c2ncccc2-c2ccc3c(=O)nc[nH]c3c2)ccc1F` [compound 348, 7-(2-(4-Fluoro-3-methylphenyl)pyridin-3-yl)quinazolin-4(1H)-one], the IC50 worked out at 1300 nM.
With `Cc1cccc(-c2ncccc2-c2ccc3c(=O)nc[nH]c3c2)c1` [compound 349, 7-(2-(m-Tolyl)pyridin-3-yl)quinazolin-4(1H)-one], the IC50 is 1010 nM.
For `O=c1nc[nH]c2cc(-c3cccnc3-c3cccc(C4CC4)c3)ccc12` [compound 350, 7-(2-(3-cyclopropylphenyl)pyridin-3-yl)quinazolin-4(1H)-one], the IC50 came out at 347 nM.
Consider `COc1cc(CNc2cnc(-c3ccc(F)c(C)c3)c(-c3ccc4ncsc4c3)c2)ccc1O` [compound 351, 4-(((5-(Benzo[d]thiazol-6-yl)-6-(4-fluoro-3-methylphenyl)pyridin-3-yl)amino)methyl)-2-methoxyphenol], for which the IC50 amounted to 215 nM.
Consider `COc1ccc(CNc2cnc(-c3ccc(F)c(C)c3)c(-c3ccc4ncsc4c3)c2)cc1OCC(N)=O` [compound 352, 2-(5-(((5-(Benzo[d]thiazol-6-yl)-6-(4-fluoro-3-methylphenyl)pyridin-3-yl)amino)methyl)-2-methoxyphenoxy)acetamide], for which the IC50 came out at 307 nM.
With `Cc1cc(-c2ncc(NCc3ccc(N4CCOCC4)cc3)cc2-c2ccc3ncsc3c2)ccc1F` [compound 353, 5-(Benzo[d]thiazol-6-yl)-6-(4-fluoro-3-methylphenyl)-N-(4-morpholinobenzyl)pyridin-3-amine], the IC50 was 689 nM.
As to `Cc1cc(-c2ncc(NCc3cccc(N4CCOCC4)c3)cc2-c2ccc3ncsc3c2)ccc1F` [compound 354, 5-(Benzo[d]thiazol-6-yl)-6-(4-fluoro-3-methylphenyl)-N-(3-morpholinobenzyl)pyridin-3-amine], the IC50 is 1270 nM.
For `COc1cc(CNc2cnc(-c3ccc(F)c(C)c3)c(-c3ccc4ncsc4c3)c2)ccc1OCCO` [compound 356, 2-(4-(((5-(Benzo[d]thiazol-6-yl)-6-(4-fluoro-3-methylphenyl)pyridin-3-yl)amino)methyl)-2-methoxyphenoxy)ethan-1-ol], the IC50 worked out at 965 nM.
Turning to `Cc1cc(-c2ncc(NCc3ccc(CN4CCOCC4)cc3)cc2-c2ccc3ncsc3c2)ccc1F` [compound 358, 5-(Benzo[d]thiazol-6-yl)-6-(4-fluoro-3-methylphenyl)-N-(4-(morpholinomethyl)benzyl)pyridin-3-amine], the IC50 came out at 863 nM.
`Cc1cc(-c2ncc(NCc3ccc(S(N)(=O)=O)cc3)cc2-c2ccc3ncsc3c2)ccc1F` [compound 359, 4-(((5-(Benzo[d]thiazol-6-yl)-6-(4-fluoro-3-methylphenyl)pyridin-3-yl)amino)methyl)benzenesulfonamide]: the IC50 is 524 nM.
The result for `Cc1cccc(-c2ncccc2-c2ccc3[nH]cnc(=O)c3c2)c1` [compound 361, 6-(2-(m-tolyl)pyridin-3-yl)quinazolin-4(1H)-one] reads 230 nM; that for `O=c1nc[nH]c2ccc(-c3cccnc3-c3cccc(C4CC4)c3)cc12` [compound 362, 6-(2-(3-Cyclopropylphenyl)pyridin-3-yl)quinazolin-4(1H)-one], 105 nM; that for `Cc1cc(-c2ncccc2-c2ccc3ncncc3c2)ccc1F` [compound 363, 6-(2-(4-Fluoro-3-methylphenyl)pyridin-3-yl)quinazoline], 903 nM.
As to `Cc1cccc(-c2ncccc2-c2ccc3ncncc3c2)c1` [compound 364, 6-(2-(m-Tolyl)pyridin-3-yl)quinazoline], the IC50 was determined as 338 nM.
On to `c1cc(-c2ncccc2-c2ccc3ncncc3c2)cc(C2CC2)c1` [compound 365, 6-(2-(3-Cyclopropylphenyl)pyridin-3-yl)quinazoline], for which the IC50 was 165 nM.
Turning to `COc1cc(CNc2cnc(-c3ccc(F)c(C)c3)c(-c3ccc4ncsc4c3)c2)cc(OC)c1O` [compound 366, 4-(((5-(Benzo[d]thiazol-6-yl)-6-(4-fluoro-3-methylphenyl)pyridin-3-yl)amino)methyl)-2,6-dimethoxyphenol], the IC50 is 226 nM.
For the compound `COc1cc(CNc2cnc(-c3ccc(F)c(C)c3)c(-c3ccc4ncsc4c3)c2)cc(O)c1OC` [compound 367, 5-(((5-(Benzo[d]thiazol-6-yl)-6-(4-fluoro-3-methylphenyl)pyridin-3-yl)amino)methyl)-2,3-dimethoxyphenol], the IC50 was 280 nM.
In the case of `Cc1cc(-c2ncc(NCc3ccc(O)c(O)c3)cc2-c2ccc3ncsc3c2)ccc1F` [compound 368, 4-(((5-(Benzo[d]thiazol-6-yl)-6-(4-fluoro-3-methylphenyl)pyridin-3-yl)amino)methyl)benzene-1,2-diol], the IC50 was 189 nM.
With `Cc1cc(-c2ncc(NCc3ccc(O)c(F)c3)cc2-c2ccc3ncsc3c2)ccc1F` [compound 369, 4-(((5-(Benzo[d]thiazol-6-yl)-6-(4-fluoro-3-methylphenyl)pyridin-3-yl)amino)methyl)-2-fluorophenol], the IC50 worked out at 193 nM.
As for `Cc1cc(-c2ncc(NCc3ccc(O)c(C(F)(F)F)c3)cc2-c2ccc3ncsc3c2)ccc1F` [compound 370, 4-(((5-(Benzo[d]thiazol-6-yl)-6-(4-fluoro-3-methylphenyl)pyridin-3-yl)amino)methyl)-2-(trifluoromethyl)phenol], the IC50 was 411 nM.
Consider `Cc1cc(-c2ncc(NCc3ccc(O)c(OC(F)(F)F)c3)cc2-c2ccc3ncsc3c2)ccc1F` [compound 371, 4-(((5-(Benzo[d]thiazol-6-yl)-6-(4-fluoro-3-methylphenyl)pyridin-3-yl)amino)methyl)-2-(trifluoromethoxy)phenol], for which the IC50 came out at 737 nM.
Regarding `Cc1cc(CNc2cnc(-c3ccc(F)c(C)c3)c(-c3ccc4ncsc4c3)c2)ccc1O` [compound 372, 4-(((5-(Benzo[d]thiazol-6-yl)-6-(4-fluoro-3-methylphenyl)pyridin-3-yl)amino)methyl)-2-methylphenol], the IC50 came out at 339 nM.
For the compound `Cc1cc(-c2ncc(NCc3ccc(N4CCN(C)CC4)cc3)cc2-c2ccc3ncsc3c2)ccc1F` [compound 373, 5-(Benzo[d]thiazol-6-yl)-6-(4-fluoro-3-methylphenyl)-N-(4-(4-methylpiperazin-1-yl)benzyl)pyridin-3-amine], the IC50 came out at 1200 nM.
In the case of `Cc1cc(-c2ncc(NCc3ccc(N4CCC(O)CC4)cc3)cc2-c2ccc3ncsc3c2)ccc1F` [compound 374, 1-(4-(((5-(Benzo[d]thiazol-6-yl)-6-(4-fluoro-3-methylphenyl)pyridin-3-yl)amino)methyl)phenyl)piperidin-4-ol], the IC50 was found to be 495 nM.
As for `COc1ncnc2ccc(-c3cccnc3-c3ccc(F)c(C)c3)cc12` [compound 375, 6-(2-(4-Fluoro-3-methylphenyl)pyridin-3-yl)-4-methoxyquinazoline], the IC50 worked out at 152 nM.
With `COc1ncnc2ccc(-c3cccnc3-c3cccc(C)c3)cc12` [compound 376, 4-Methoxy-6-(2-(m-tolyl)pyridin-3-yl)quinazoline], the IC50 was determined as 276 nM.
Take `COc1ncnc2ccc(-c3cccnc3-c3cccc(C4CC4)c3)cc12` [compound 377, 6-(2-(3-Cyclopropylphenyl)pyridin-3-yl)-4-methoxyquinazoline]: the IC50 came to 172 nM.
